Measured values as given in the SangsterLogP compilation.

Compound	logP
O=C(CNc1ccc2[nH]c(=O)[nH]c2c1)N1CCC(Cc2ccc(F)cc2)CC1	3.21
O=C(Nc1ccc2[nH]c(=O)oc2c1)C(=O)N1CCC(Cc2ccccc2)CC1	3.78
CS(=O)(=O)N[C@H]1CC[C@H](CCN2CCN(c3cccc(Cl)c3Cl)CC2)CC1	4.03
CC(=O)NC1CCC(CCN2CCN(c3cccc(Cl)c3Cl)CC2)CC1 (stereo not given)	4.18
CCC(O)NC1CCC(CCN2CCN(c3cccc(Cl)c3Cl)CC2)CC1 (stereo not given)	4.29

Now from value to molecule:

logP	Compound
3.62	N#Cc1cc(N2CCN(CCCCNC(=O)C=Cc3cccnc3)CC2)cc(C(F)(F)F)c1
4.28	O=C(NCCCCN1CCC(c2cccc(C(F)(F)F)c2)CC1)c1ccc(Br)cc1
4.55	N#Cc1cc(N2CCN(CCCCNC(=O)c3cnc4ccccc4c3)CC2)cc(C(F)(F)F)c1
4.22	O=C(NCCCCN1CCC(Oc2cccc(C(F)(F)F)c2)CC1)c1ccnc2ccccc12
3.76	O=C(NCCCCN1CCC(Nc2cccc(C(F)(F)F)c2)CC1)c1ccc(Br)cc1
